PubChem BioAssay AID212 (DTP/NCI, 2004)
Several values for one entry are separate records, joined by “and”; a condition that tells them apart may be missing. Equal values may be shown once. Records with an inconclusive call do not appear.

System: BDF1 mice, colon carcinoma 38 sc, T/C %
Experiment: NCI In Vivo Anticancer Drug Screen. Data for tumor model Colon Carcinoma 38 (subcutaneous) in B6D2F1 (BDF1) mice
Conditions: endpoint: median tumor weight (est.), higher = larger tumour
Summary of the method: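 Mice with transplanted tumors are treated with compound or vehicle. Survival or tumor size is then measured in both groups. The ratio of treated to control gives the reported figure.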

[1] = dose: 12.5 mg/kg/injection, schedule: Q07DX002 (ip), vehicle: Klucel (hydroxypropylcellulose) (HPC)
[2] = dose: 25.0 mg/kg/injection, schedule: Q07DX002 (ip), vehicle: Klucel (hydroxypropylcellulose) (HPC)
[3] = dose: 12.5 mg/kg/injection, schedule: Q07DX002 (ip), vehicle: saline
[4] = dose: 25.0 mg/kg/injection, schedule: Q07DX002 (ip), vehicle: saline
[5] = dose: 50.0 mg/kg/injection, schedule: Q07DX002 (ip), vehicle: saline
[6] = dose: 100.0 mg/kg/injection, schedule: Q07DX002 (ip), vehicle: saline
[7] = dose: 50.0 mg/kg/injection, schedule: Q07DX002 (ip), vehicle: Klucel (hydroxypropylcellulose) (HPC)
[8] = dose: 100.0 mg/kg/injection, schedule: Q07DX002 (ip), vehicle: Klucel (hydroxypropylcellulose) (HPC)

CC1CN=C(c2ccc(NC(=O)c3ccc(C(=O)Nc4ccc(C5=NCC(C)N5)cc4)cc3)cc2)N1 (configuration not stated)
T/C (dose: 12.5 mg/kg/injection, schedule: Q07DX003 (ip), vehicle: Klucel (hydroxypropylcellulose) (HPC)): 78 % of control and 79 % of control
T/C (dose: 25.0 mg/kg/injection, schedule: Q07DX003 (ip), vehicle: Klucel (hydroxypropylcellulose) (HPC)): 115 % of control and 102 % of control
T/C (dose: 200.0 mg/kg/injection, schedule: Q07DX003 (ip), vehicle: Klucel (hydroxypropylcellulose) (HPC)): 86 % of control
T/C (dose: 400.0 mg/kg/injection, schedule: Q07DX003 (ip), vehicle: Klucel (hydroxypropylcellulose) (HPC)): 63 % of control

CNC(=O)OCc1c(COC(=O)NC)c(-c2ccc(Cl)c(Cl)c2)n2c1Cc1ccccc1C2
T/C (dose: 50.0 mg/kg/injection, schedule: Q07DX002 (ip), vehicle: distilled water + Tween-80): 86 % of control
T/C (dose: 100.0 mg/kg/injection, schedule: Q07DX002 (ip), vehicle: distilled water + Tween-80): 81 % of control
T/C (dose: 200.0 mg/kg/injection, schedule: Q07DX002 (ip), vehicle: distilled water + Tween-80): 65 % of control

COc1ccc(CC2C(=O)NC(C)C(=O)N(C)C3C(=O)N(C)C(Cc4ccc(O)c(c4)Oc4ccc(cc4)C3O)C(=O)NC(C)C(=O)NC(C)C(=O)N2C)cc1 (configuration not stated)
T/C (dose: 0.5 mg/kg/injection, schedule: Q07DX003 (ip), vehicle: Klucel (hydroxypropylcellulose) (HPC)): 98 % of control
T/C (dose: 1.0 mg/kg/injection, schedule: Q07DX003 (ip), vehicle: Klucel (hydroxypropylcellulose) (HPC)): 106 % of control
T/C (dose: 4.0 mg/kg/injection, schedule: Q07DX003 (ip), vehicle: Klucel (hydroxypropylcellulose) (HPC)): 182 % of control
T/C (dose: 8.0 mg/kg/injection, schedule: Q07DX003 (ip), vehicle: Klucel (hydroxypropylcellulose) (HPC)): 159 % of control
T/C (dose: 16.0 mg/kg/injection, schedule: Q07DX003 (ip), vehicle: Klucel (hydroxypropylcellulose) (HPC)): 44 % of control

CC1=CC(C)(C)Nc2ccc(CSc3ccccc3)cc21
T/C (dose: 6.25 mg/kg/injection, schedule: Q07DX002 (ip), vehicle: DMSO): 88 % of control
T/C (dose: 12.5 mg/kg/injection, schedule: Q07DX002 (ip), vehicle: DMSO): 86 % of control
T/C (dose: 12.5 mg/kg/injection, schedule: Q07DX002 (ip), vehicle: saline + Tween-80 + alcohol): 78 % of control
T/C (dose: 25.0 mg/kg/injection, schedule: Q07DX002 (ip), vehicle: DMSO): 76 % of control
T/C (dose: 25.0 mg/kg/injection, schedule: Q07DX002 (ip), vehicle: saline + Tween-80 + alcohol): 86 % of control
T/C (dose: 50.0 mg/kg/injection, schedule: Q07DX002 (ip), vehicle: DMSO): 67 % of control
T/C (dose: 50.0 mg/kg/injection, schedule: Q07DX002 (ip), vehicle: saline + Tween-80 + alcohol): 107 % of control
T/C (dose: 100.0 mg/kg/injection, schedule: Q07DX002 (ip), vehicle: DMSO): 59 % of control
T/C (dose: 100.0 mg/kg/injection, schedule: Q07DX002 (ip), vehicle: saline + Tween-80 + alcohol): 102 % of control

CC(=O)O[C@@H]1[C@@H](O)C2=C3[C@]4(C)[C@@H]1C(C)(C)C(=O)C[C@@H]4[C@]3(O)[C@H](OC(C)=O)[C@@]1(C[C@@H]1C)C2=O
T/C (dose: 3.12 mg/kg/injection, schedule: Q07DX003 (ip), vehicle: saline with Tween-80): 97 % of control
T/C (dose: 6.25 mg/kg/injection, schedule: Q07DX003 (ip), vehicle: saline with Tween-80): 93 % of control
T/C (dose: 25.0 mg/kg/injection, schedule: Q07DX003 (ip), vehicle: saline with Tween-80): 86 % of control
T/C (dose: 50.0 mg/kg/injection, schedule: Q07DX003 (ip), vehicle: saline with Tween-80): 64 % of control

CN1CCN(c2ccc([N+](=O)[O-])c3no[n+]([O-])c23)CC1
T/C (dose: 5.0 mg/kg/injection, schedule: Q07DX002 (ip), vehicle: saline with Tween-80): 105 % of control
T/C (dose: 20.0 mg/kg/injection, schedule: Q07DX002 (ip), vehicle: saline with Tween-80): 77 % of control
T/C (dose: 40.0 mg/kg/injection, schedule: Q07DX002 (ip), vehicle: saline with Tween-80): 68 % of control

CN(C)c1ccc2c(N(C)C)cc(N(C)C)nc2c1
T/C (dose: 3.12 mg/kg/injection, schedule: Q07DX002 (ip), vehicle: Klucel (hydroxypropylcellulose) (HPC)): 77 % of control and 101 % of control
T/C [1]: 114 % of control and 107 % of control
T/C [2]: 72 % of control

C/C=C(\C)c1cc(=O)c2c(C)cc3c(c2o1)C(=O)c1c(O)c(C2CC(C)(N(C)C)C(O)C(C)O2)cc(C2CC(N(C)C)C(O)C(C)O2)c1C3=O (configuration not stated)
T/C (dose: 0.62 mg/kg/injection, schedule: Q07DX002 (ip), vehicle: saline): 117 % of control
T/C (dose: 1.25 mg/kg/injection, schedule: Q07DX002 (ip), vehicle: saline): 118 % of control
T/C (dose: 62.5 micrograms/kg/injection, schedule: Q07DX002 (ip), vehicle: saline): 109 % of control and 103 % of control
T/C (dose: 250.0 micrograms/kg/injection, schedule: Q07DX002 (ip), vehicle: saline): 81 % of control and 84 % of control
T/C (dose: 500.0 micrograms/kg/injection, schedule: Q07DX002 (ip), vehicle: saline): 80 % of control and 85 % of control
T/C (dose: 1000.0 micrograms/kg/injection, schedule: Q07DX002 (ip), vehicle: saline): 74 % of control and 95 % of control
T/C (dose: 2000.0 micrograms/kg/injection, schedule: Q07DX002 (ip), vehicle: saline): 100 % of control

CC1(C)COCN1COCCOCN1COCC1(C)C
T/C [3]: 87 % of control
T/C [4]: 109 % of control and 112 % of control
T/C [5]: 80 % of control and 95 % of control
T/C [6]: 81 % of control and 88 % of control

O=C1C=CC(=O)O1 (tested in a mixture with another compound)
T/C [3]: 155 % of control
T/C [4]: 106 % of control
T/C [5]: 90 % of control
T/C [6]: 100 % of control
T/C (dose: 200.0 mg/kg/injection, schedule: Q07DX002 (ip), vehicle: saline): 86 % of control
T/C (dose: 400.0 mg/kg/injection, schedule: Q07DX002 (ip), vehicle: saline): 86 % of control

O=c1[nH]c(=O)n(C2CC(O)C(CO)O2)cc1Br (configuration not stated)
T/C [7]: 112 % of control
T/C (dose: 400.0 mg/kg/injection, schedule: Q07DX002 (ip), vehicle: Klucel (hydroxypropylcellulose) (HPC)): 86 % of control and 87 % of control
T/C (dose: 800.0 mg/kg/injection, schedule: Q07DX002 (ip), vehicle: Klucel (hydroxypropylcellulose) (HPC)): 88 % of control

COc1ccc(Cl)[n+]([O-])n1
T/C (dose: 6.25 mg/kg/injection, schedule: Q07DX002 (ip), vehicle: Klucel (hydroxypropylcellulose) (HPC)): 83 % of control
T/C [1]: 87 % of control
T/C [2]: 89 % of control
T/C [7]: 81 % of control
T/C [8]: 90 % of control

Nc1cc2c3c(cccc3c1)C(=O)N(CCN1CCCC1)C2=O
T/C (dose: 15.0 mg/kg/injection, schedule: Q07DX002 (ip), vehicle: saline with Tween-80): 75 % of control
T/C (dose: 25.0 mg/kg/injection, schedule: Q07DX002 (ip), vehicle: saline with Tween-80): 117 % of control
T/C (dose: 30.0 mg/kg/injection, schedule: Q07DX002 (ip), vehicle: saline with Tween-80): 83 % of control
T/C (dose: 50.0 mg/kg/injection, schedule: Q07DX002 (ip), vehicle: saline with Tween-80): 152 % of control
T/C (dose: 60.0 mg/kg/injection, schedule: Q07DX002 (ip), vehicle: saline with Tween-80): 73 % of control
T/C (dose: 100.0 mg/kg/injection, schedule: Q07DX002 (ip), vehicle: saline with Tween-80): 90 % of control
T/C (dose: 120.0 mg/kg/injection, schedule: Q07DX002 (ip), vehicle: saline with Tween-80): 62 % of control
T/C (dose: 200.0 mg/kg/injection, schedule: Q07DX002 (ip), vehicle: saline with Tween-80): 28 % of control

O=C(O)CSc1c(Cl)c(=O)oc2ccc(Cl)cc12
T/C [2]: 93 % of control
T/C [7]: 113 % of control
T/C [8]: 81 % of control
T/C (dose: 200.0 mg/kg/injection, schedule: Q07DX002 (ip), vehicle: Klucel (hydroxypropylcellulose) (HPC)): 120 % of control

CCC1(O)CC2CN(CCc3c([nH]c4ccccc34)C(C(=O)OC)(c3cc4c(cc3OC)N(C)C3C(O)(C(N)=O)C(O)C5(CC)C=CCN6CCC43C65)C2)C1 (configuration not stated) (tested in a mixture with another compound)
T/C (dose: 0.12 mg/kg/injection, schedule: Q07DX002 (ip), vehicle: water): 87 % of control
T/C (dose: 0.5 mg/kg/injection, schedule: Q07DX002 (ip), vehicle: water): 119 % of control and 94 % of control
T/C (dose: 2.0 mg/kg/injection, schedule: Q07DX002 (ip), vehicle: water): 36 % of control and 48 % of control
T/C (dose: 4.0 mg/kg/injection, schedule: Q07DX002 (ip), vehicle: water): 5 % of control and 15 % of control

C=C1C(=O)OC2CC(C)C3C4OC4C(O)C3(C)C(O)C12 (configuration not stated)
T/C (dose: 6.25 mg/kg/injection, schedule: Q07DX002 (ip), vehicle: saline): 115 % of control
T/C [3]: 118 % of control
T/C [4]: 116 % of control
T/C [5]: 80 % of control
T/C [6]: 155 % of control
